26 compounds from patent US8623857B2, “N-phenyl imidazole carboxamide inhibitors of 3-phosphoinositide-dependent protein kinase-1” (Merck Sharp & Dohme Corp., priority 2010, dated 2014) can be followed below.

The first experiment deals with T1, recombinant human PDK1 (Homo sapiens, UniProt O15530).
T1 construct: containing amino acids 51-556 of the human PDK1 enzyme; made in house; host or cells: Sf9 insect cells
T1 sequence (O15530 51-556): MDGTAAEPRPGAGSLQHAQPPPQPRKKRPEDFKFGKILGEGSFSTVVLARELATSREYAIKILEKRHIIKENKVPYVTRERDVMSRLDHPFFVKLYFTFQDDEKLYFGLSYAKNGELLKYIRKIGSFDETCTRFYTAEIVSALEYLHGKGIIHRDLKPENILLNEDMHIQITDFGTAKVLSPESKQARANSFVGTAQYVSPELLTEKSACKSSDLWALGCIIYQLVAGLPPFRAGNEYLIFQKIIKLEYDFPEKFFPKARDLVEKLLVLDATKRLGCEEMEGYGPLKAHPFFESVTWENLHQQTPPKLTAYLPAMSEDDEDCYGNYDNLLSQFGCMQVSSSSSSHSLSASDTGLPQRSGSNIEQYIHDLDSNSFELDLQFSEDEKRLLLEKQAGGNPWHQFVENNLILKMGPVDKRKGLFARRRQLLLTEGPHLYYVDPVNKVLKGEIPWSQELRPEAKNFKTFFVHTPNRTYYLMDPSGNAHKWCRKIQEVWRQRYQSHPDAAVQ
The experiment in a line: PDK1 IMAP fluorescence polarization assay (inhibition of peptide substrate phosphorylation). In kind it is biochemical. To be noted: Table 6; 10 nM PDK1 enzyme, 100 nM peptide substrate, 100 nM PIFtide, 2.5 uM ATP, 1.5 hours. Background: Polarisation of emitted light reports the rotation of a fluorescent probe.
For the compound `NCC1CCN(c2c(NC(=O)c3nc(-c4ccnc(N)c4)c[nH]3)ccc(F)c2F)CC1` [Compound 28, N-[2-[4-(aminomethyl)-1-piperidinyl]-3,4-difluorophenyl]-4-(2-amino-4-pyridinyl)-1H-imidazole-2-carboxamide], the IC50 (as a rule, the concentration that inhibits the measured activity by half) lay in the range of 51 to 250 nM.
Still for that read-out and setting: for `CCNCCNC(=O)C1CCN(c2c(F)cccc2NC(=O)c2nc(-c3ccnc(C)c3)c[nH]2)CC1` [Compound 86, N-[2-(ethylamino)ethyl]-1-[2-fluoro-6-[[[4-(2-methyl-4-pyridinyl)-1H-imidazol-2-yl]carbonyl]amino]phenyl]-4-piperidinecarboxamide] the value was 251 to 1000 nM.
As for `CNc1cc(-c2c[nH]c(C(=O)Nc3cccc(F)c3N3CCC(CN)CC3)n2)ccn1` [Compound 32, N-[2-[4-(aminomethyl)-1-piperidinyl]-3-fluorophenyl]-4-[2-(methylamino)-4-pyridinyl]-1H-imidazole-2-carboxamide], the IC50 was 1 to 50 nM.
Same read-out and setting: for `Cn1cc(-c2c[nH]c(C(=O)Nc3cccc(F)c3N3CCC[C@@H](N)C3)n2)cn1` [Compound 14, N-[2-(3(R)-amino-1-piperidinyl)-3-fluorophenyl]-4-(1-methyl-1H-pyrazol-4-yl)-1H-imidazole-2-carboxamide] the value was 251 to 1000 nM; for `N[C@@H]1CCCN(c2c(F)cccc2NC(=O)c2nc(-c3cnn(Cc4ccccn4)c3)c[nH]2)C1` [Compound 7, N-[2-(3(R)-amino-1-piperidinyl)-3-fluorophenyl]-4-[1-(2-pyridinylmethyl)-1H-pyrazol-4-yl]-1H-imidazole-2-carboxamide], 1000 to 5000 nM.
Same read-out and setting: as for `Cc1nc(N)cc(-c2c[nH]c(C(=O)Nc3cccc(F)c3N3CCC(CN)CC3)n2)n1` [Compound 49, N-[2-[4-(aminomethyl)-1-piperidinyl]-3-fluorophenyl]-4-(6-amino-2-methyl-4-pyrimidinyl)-1H-imidazole-2-carboxamide], the figure is 51 to 250 nM.
On the same count and under the same terms, as for `Cc1cc(-c2c[nH]c(C(=O)Nc3cccc(F)c3N3CCC4(CCCNC4)CC3)n2)ccn1` [Compound 46, N-[2-(2,9-diazaspiro[5,5]undec-9-yl)-3-fluorophenyl]-4-(2-methyl-4-pyridinyl)-1H-imidazole-2-carboxamide], the figure is 51 to 250 nM; as for `Cc1cc(-c2c[nH]c(C(=O)Nc3cccc(F)c3N3CCC(C(=O)N4CC[C@H](F)C4)CC3)n2)ccn1` [Compound 64, N-[3-fluoro-2-[4-[(3(S)-fluoro-1-pyrrolidinyl)carbonyl]-1-piperidinyl]phenyl]-4-(2-methyl-4-pyridinyl)-1H-imidazole-2-carboxamide], 1000 to 5000 nM.
On to `Cc1cc(-c2c[nH]c(C(=O)Nc3cccc(F)c3N3CCC(C(=O)N4CC5CNC(C5)C4)CC3)n2)ccn1` (centres unmarked) [Compound 91, N-[2-[4-(3,6-diazabicyclo[3.2.1]oct-3-ylcarbonyl)-1-piperidinyl]-3-fluorophenyl]-4-(2-methyl-4-pyridinyl)-1H-imidazole-2-carboxamide], for which the IC50 lay within 51 to 250 nM.
The same measure, in the same setting: as for `NCC1CCN(c2c(F)cccc2NC(=O)c2nc(-c3cc(C(N)=O)nc(O)n3)c[nH]2)CC1` [Compound 68, 6-[2-[[[2-[4-(aminomethyl)-1-piperidinyl]-3-fluorophenyl]amino]carbonyl]-1H-imidazol-4-yl]-2-hydroxy-4-pyrimidinecarboxamide], the figure is 1 to 50 nM; as for `Cc1cc(-c2c[nH]c(C(=O)Nc3cccc(F)c3N3CC4CNCC4C3)n2)ccn1` (centres unmarked) [Compound 58, N-[3-fluoro-2-(hexahydropyrrolo[3,4-c]pyrrol-2(1H)-yl)phenyl]-4-(2-methyl-4-pyridinyl)-1H-imidazole-2-carboxamide], 1000 to 5000 nM.
Still for that read-out and setting: for `NCC1CCN(c2c(F)cccc2NC(=O)c2nc(-c3cc(N[C@H](CO)c4ccccc4)nc(N)n3)c[nH]2)CC1` [Compound 77, 4-[2-amino-6-[(2-hydroxy-1(S)-phenylethyl)amino]-4-pyrimidinyl]-N-[2-[4-(aminomethyl)-1-piperidinyl]-3-fluorophenyl]-1H-imidazole-2-carboxamide] the value was 1 to 50 nM.
Still for that read-out and setting: as for `N[C@@H]1CCCN(c2c(F)cccc2NC(=O)c2nc(-c3ccncc3)c[nH]2)C1` [Compound 10, N-[2-(3(R)-amino-1-piperidinyl)-3-fluorophenyl]-4-(4-pyridinyl)-1H-imidazole-2-carboxamide], the figure is 251 to 1000 nM; as for `CCC1(CN)CCN(c2c(F)cccc2NC(=O)c2nc(-c3ccnc(C)c3)c[nH]2)CC1` [Compound 52, N-[2-[4-(aminomethyl)-4-ethyl-1-piperidinyl]-3-fluorophenyl]-4-(2-methyl-4-pyridinyl)-1H-imidazole-2-carboxamide], 51 to 250 nM.
For the compound `N[C@@H]1CCCN(c2c(F)cccc2NC(=O)c2nc(-c3cnn(Cc4ccccc4)c3)c[nH]2)C1` [Compound 4, N-[2-(3(R)-amino-1-piperidinyl)-3-fluorophenyl]-4-[1-(phenylmethyl)-1H-pyrazol-4-yl]-1H-imidazole-2-carboxamide], the IC50 was in the range of 51 to 250 nM.
Same read-out and setting: for `NCC1CCN(c2c(F)cccc2NC(=O)c2nc(-c3cc(NCc4ccc(C(F)(F)F)cc4)nc(N)n3)c[nH]2)CC1` [Compound 70, N-[2-[4-(aminomethyl)-1-piperidinyl]-3-fluorophenyl]-4-[2-amino-6-[[[4-(trifluoromethyl)phenyl]methyl]amino]-4-pyrimidinyl]-1H-imidazole-2-carboxamide] the value was 51 to 250 nM; for `Cc1cc(-c2c[nH]c(C(=O)Nc3cccc(F)c3N3CCC(C(=O)NCC(O)C(F)(F)F)CC3)n2)ccn1` (centres unmarked) [Compound 62, 1-[2-fluoro-6-[[[4-(2-methyl-4-pyridinyl)-1H-imidazol-2-yl]carbonyl]amino]phenyl]-N-(3,3,3-trifluoro-2-hydroxypropyl)-4-piperidinecarboxamide], 1000 to 5000 nM.
Still for that read-out and setting: as for `Cc1cc(-c2c[nH]c(C(=O)Nc3cccc(F)c3N3CCC(C(=O)N4CCC5(CC4)CNC(=O)C5)CC3)n2)ccn1` [Compound 93, N-[3-fluoro-2-[4-[(3-oxo-2,8-diazaspiro[4.5]dec-8-yl)carbonyl]-1-piperidinyl]phenyl]-4-(2-methyl-4-pyridinyl)-1H-imidazole-2-carboxamide], the figure is 251 to 1000 nM.
Still for that read-out and setting: for `NCC1CCN(c2ccc(-c3cn[nH]c3)cc2NC(=O)c2nc(-c3cn[nH]c3)c[nH]2)CC1` [Compound 51, N-[2-[4-(aminomethyl)-1-piperidinyl]-5-(1H-pyrazol-4-yl)phenyl]-4-(1H-pyrazol-4-yl)-1H-imidazole-2-carboxamide] the value was 251 to 1000 nM.

The experiment is the same for the next values; noted with them: Table 10; compounds 97-132.
`CNc1nc(-c2c[nH]c(C(=O)Nc3cccc(F)c3N3CCC(CN)CC3)n2)cc(N2CC[C@@](COC)(C(=O)NC3CC3)C2)n1` [Compound 131, (R)—N-(2-(4-(aminomethyl)piperidin-1-yl)-3-fluorophenyl)-4-(6-(3-(cyclopropylcarbamoyl)-3-(methoxymethyl)pyrrolidin-1-yl)-2-(methylamino)pyrimidin-4-yl)-1H-imidazole-2-carboxamide]: the IC50 was 1 to 50 nM.
The same measure, in the same setting: for `CNc1nc(-c2c[nH]c(C(=O)Nc3ccccc3N3CCNCC3)n2)cc(N2C[C@@H](C(=O)NC3CCCCC3)CC[C@@H]2C)n1` (racemic) [Compound 104, N-cyclohexyl-6-methyl-1-(2-(methylamino)-6-(2-(2-(piperazin-1-yl)phenylcarbamoyl)-1H-imidazol-4-yl)pyrimidin-4-yl)piperidine-3-carboxamide] the value was 51 to 250 nM; for `CNc1nc(-c2c[nH]c(C(=O)Nc3ccccc3N3CCNCC3)n2)cc(N2CC(C(=O)NC3CCCCC3)CCC2C)n1` (racemic) [Compound 102, N-cyclohexyl-6-methyl-1-(2-(methylamino)-6-(2-(2-(piperazin-1-yl)phenylcarbamoyl)-1H-imidazol-4-yl)pyrimidin-4-yl)piperidine-3-carboxamide], 1 to 50 nM.
On the same count and under the same terms, as for `NCC1CCN(c2c(F)cccc2NC(=O)c2nc(-c3cc(N4CCOCC4)nc(N)n3)c[nH]2)CC1` [Compound 99, 4-(2-amino-6-morpholinopyrimidin-4-yl)-N-(2-(4-(aminomethyl)piperidin-1-yl)-3-fluorophenyl)-1H-imidazole-2-carboxamide], the figure is 1 to 50 nM; as for `CNc1nc(-c2c[nH]c(C(=O)Nc3ccccc3N3CCNCC3)n2)cc(N2CCOC(C(=O)NC3CCCCC3)C2)n1` (centres unmarked) [Compound 106, N-cyclohexyl-4-(2-(methylamino)-6-(2-(2-(piperazin-1-yl)phenylcarbamoyl)-1H-imidazol-4-yl)pyrimidin-4-yl)morpholine-2-carboxamide], 51 to 250 nM; as for `CNc1nc(-c2c[nH]c(C(=O)Nc3cccc(F)c3N3CCC(CN)CC3)n2)cc(N2CCN[C@@H](C)C2)n1` [Compound 124, (S)—N-(2-(4-(aminomethyl)piperidin-1-yl)-3-fluorophenyl)-4-(2-(methylamino)-6-(3-methylpiperazin-1-yl)pyrimidin-4-yl)-1H-imidazole-2-carboxamide], 1 to 50 nM.
With `CNc1nc(-c2c[nH]c(C(=O)Nc3cccc(F)c3N3CCC4(CCNC4)CC3)n2)cc(N2CC(C(=O)NC3CCCCC3)CCC2C)n1` (racemic) [Compound 119, N-cyclohexyl-1-(6-(2-(3-fluoro-2-(2,8-diazaspiro[4.5]decan-8-yl)phenylcarbamoyl)-1H-imidazol-4-yl)-2-(methylamino)pyrimidin-4-yl)-6-methylpiperidine-3-carboxamide], the IC50 lay in the range of 1 to 50 nM.
